2 molecules from publication PMC7724679, “Identification of Repurposable Drugs and Adverse Drug Reactions for Various Courses of COVID-19 Based on Single-Cell RNA Sequencing Data” (ArXiv, 2020) can be followed below.

Holding throughout (assay type): cell-based
Data set [1] deals with Influenza A virus (IAV, Puerto Rico/8/1934(H1N1)). As to the kind of experiment: Antiviral assay, IAV viral RNA in supernatant by RT-qPCR, Calu-3 cells. Conditions: for IC50: read-out: IC50, antiviral activity against IAV. In general terms: In qPCR the cycle at which signal appears reflects the starting amount.
The subject of another data set is Vero E6 cells. In words: Drug-induced cytotoxicity, CCK-8, Vero E6 cells. The note with it: 24 h. The method, then: (§1) The drug-induced cytotoxicity of the test drugs (tyrphostin-AG-1478 and brefeldin-a) on Calu-3 and Vero E6 cells was determined by a cell counting kit 8 (CCK-8, APExBIO). Cells were cultured overnight in 96-well cell-culture Petri dishes at a density of 1 × 10^4 cells/well. A 10 mM stock of drug was serially diluted in 100% DMSO to obtain a 10-point dilution series. Plates were cultured with fresh drug-containing medium at 37°C for 24 h. The DMSO concentration remained constant under all conditions at 0.05%. The absorbance of each well was determined by using a 96-well multiscanner. After subtracting background absorption, the results were expressed as a percentage of viability relative to that of control cultures that received no drug. Drug concentrations that inhibited cell viability by 50% (IC50) were determined by using GraphPad Prism 8 software.

For data set [2], the system named is Influenza A virus (IAV, Puerto Rico/8/1934(H1N1)). In words: Antiviral assay, IAV viral RNA in supernatant by RT-qPCR, Vero E6 cells. The note with it: for IC50: read-out: IC50, antiviral activity against IAV.
Data set [3] concerns mRNA levels of MX1, ISG15, IFNB1, ACE2. In words: Cellular mRNA levels by qPCR in IAV-infected Calu-3 cells. Conditions: IAV-infected Calu-3 cells (MOI of 1), 0 to 10 μM.
The next data set relates to Calu-3 cells. As to the kind of experiment: Drug-induced cytotoxicity, CCK-8, Calu-3 cells. The note with it: 24 h. The method, then: as §1

Broadly, the IC50 is the concentration that gives 50% inhibition. As to `C[C@H]1CCC/C=C/[C@@H]2C[C@H](O)C[C@H]2[C@H](O)/C=C/C(=O)O1` [Brefeldin-a], the “IAV viral RNA levels in cell culture supernatant” value (“IAV viral RNA levels” below) in data set [1] is listed as “reduced IAV viral RNA levels dose dependently”. The IC50 in data set [1] (Influenza A virus, H1N1 / PR8, Calu-3) amounted to 59 nM. The “cytotoxicity (cell viability)” value in the data set on Vero E6 cells is reported as “slightly reduced viability”. In data set [2], the “IAV viral RNA levels” value is reported as “reduced IAV viral RNA levels dose dependently”. Further, in data set [2] (Influenza A virus, H1N1 / PR8, Vero C1008), the IC50 stood at 246 nM. Also, in data set [3], the “ACE2 mRNA level” value is reported as “significantly reduced”, the “IFNβ (IFNB1) mRNA level” value was “significantly reduced”, the “ISG15 mRNA level” value is recorded as “significantly reduced” and the “MX1 mRNA level” value is reported as “significantly reduced”. In addition, in the data set with Calu-3 cells, the “cytotoxicity (cell viability)” value is “Neither compound caused significant cytotoxicity”.

For `COc1cc2ncnc(Nc3cccc(Cl)c3)c2cc1OC` [Tyrphostin-AG-1478], in data set [1], the “IAV viral RNA levels” value is given as “reduced IAV viral RNA levels dose dependently” and the concentration for half-maximal inhibition (IC50) was determined as 43 nM. In the data set on Vero E6 cells, the “cytotoxicity (cell viability)” value was “Neither compound caused significant cytotoxicity”. In data set [2], the “IAV viral RNA levels” value is reported as “reduced IAV viral RNA levels dose dependently” and the IC50 came to 53 nM. For the same molecule, in data set [3], the “ACE2 mRNA level” value is given as “increased”, the “IFNβ (IFNB1) mRNA level” value was “elevated”, the “ISG15 mRNA level” value is “elevated” and the “MX1 mRNA level” value is given as “elevated”. In addition, in the data set with Calu-3 cells, the “cytotoxicity (cell viability)” value is “Neither compound caused significant cytotoxicity”.
